Assays:
[1] = biological target: T1, ATP-dependent translocase ABCB1 (Homo sapiens, UniProt P08183); test: TP_TRANSPORTER: inhibition of Rhodamine 123 transport in 3T3-G185 cells; type: functional, cell-based
[2] = biological target: T1, ATP-dependent translocase ABCB1; test: TP_TRANSPORTER: inhibition of Daunorubicin transport in 3T3-G185 cells; type: functional, cell-based

T1 sequence (P08183 whole entry): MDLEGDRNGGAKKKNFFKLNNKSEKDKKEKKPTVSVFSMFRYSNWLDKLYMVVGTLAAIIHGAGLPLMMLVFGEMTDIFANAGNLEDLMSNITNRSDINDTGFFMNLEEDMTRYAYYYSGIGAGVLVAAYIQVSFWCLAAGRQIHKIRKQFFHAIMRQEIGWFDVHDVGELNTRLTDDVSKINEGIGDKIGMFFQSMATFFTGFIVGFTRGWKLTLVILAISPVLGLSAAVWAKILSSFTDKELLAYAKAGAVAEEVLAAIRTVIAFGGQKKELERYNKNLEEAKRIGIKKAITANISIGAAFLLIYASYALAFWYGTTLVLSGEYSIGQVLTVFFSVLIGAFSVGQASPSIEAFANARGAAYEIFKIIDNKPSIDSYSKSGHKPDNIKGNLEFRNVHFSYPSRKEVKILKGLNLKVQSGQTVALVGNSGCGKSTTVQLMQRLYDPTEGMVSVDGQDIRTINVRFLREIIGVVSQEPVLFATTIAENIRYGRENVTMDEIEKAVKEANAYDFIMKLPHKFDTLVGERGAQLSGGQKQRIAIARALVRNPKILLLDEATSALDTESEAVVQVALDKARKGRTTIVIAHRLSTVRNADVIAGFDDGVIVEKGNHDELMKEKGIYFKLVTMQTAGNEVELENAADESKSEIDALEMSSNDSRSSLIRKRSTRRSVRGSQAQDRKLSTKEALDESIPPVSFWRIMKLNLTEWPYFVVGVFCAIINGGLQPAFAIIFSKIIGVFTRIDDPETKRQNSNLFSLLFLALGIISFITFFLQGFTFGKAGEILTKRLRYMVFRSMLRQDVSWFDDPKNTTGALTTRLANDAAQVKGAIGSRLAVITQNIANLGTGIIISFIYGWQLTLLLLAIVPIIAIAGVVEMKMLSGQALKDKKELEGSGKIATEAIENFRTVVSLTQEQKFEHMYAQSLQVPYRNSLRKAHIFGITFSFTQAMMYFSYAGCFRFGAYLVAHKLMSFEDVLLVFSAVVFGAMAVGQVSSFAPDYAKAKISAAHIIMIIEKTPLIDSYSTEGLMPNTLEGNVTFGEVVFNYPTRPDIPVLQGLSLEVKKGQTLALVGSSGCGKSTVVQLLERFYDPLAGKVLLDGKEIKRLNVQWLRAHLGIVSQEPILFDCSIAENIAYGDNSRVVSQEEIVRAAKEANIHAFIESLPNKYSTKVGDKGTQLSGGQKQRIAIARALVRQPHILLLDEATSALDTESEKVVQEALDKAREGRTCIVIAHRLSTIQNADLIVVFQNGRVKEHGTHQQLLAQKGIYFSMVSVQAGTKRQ

- IC50 [1]: 307 µM
- IC50 [2]: 271 µM
SMILES: CC(C)c1c(C(=O)Nc2ccccc2)c(-c2ccccc2)c(-c2ccc(F)cc2)n1CC[C@@H](O)C[C@@H](O)CC(=O)O [ATORVASTATIN]
